Measurements as given in patent publication US20160137639A1, “TRIAZOLE-ISOXAZOLE COMPOUND AND MEDICAL USE THEREOF” (JAPAN TOBACCO INC., priority 2012, published 2016).
Where two headings read alike, the source gives them in different places.

Tests used:
mouse RORγ = molecular target: T1, mouse RORγ (Mus musculus, UniProt P51450); assay: Luciferase reporter gene assay of inhibitory effect against RORγ transcriptional activity (GAL4-mRORγ plasmid in CHO cells); type: cell-based
T1 construct: mouse, NM_011281.2 and from Ile251 to Lys516; expressed in transfected cells; host or cells: CHO cells (transient co-transfection with pG5-Luc reporter)
T1 sequence (P51450 251-516): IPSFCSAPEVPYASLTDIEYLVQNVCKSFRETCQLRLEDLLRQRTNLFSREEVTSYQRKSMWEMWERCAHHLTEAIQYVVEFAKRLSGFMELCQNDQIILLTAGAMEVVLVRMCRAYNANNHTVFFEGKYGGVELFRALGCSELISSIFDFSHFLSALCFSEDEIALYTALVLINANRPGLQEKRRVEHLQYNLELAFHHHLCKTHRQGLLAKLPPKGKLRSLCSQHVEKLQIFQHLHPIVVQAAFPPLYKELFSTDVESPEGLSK
In short: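 Readout is intracellular luciferase after 2-day compound exposure (8 concentrations, 0.1% DMSO) in CHO cells expressing GAL4 fused to mouse RORγ LBD residues Ile251–Lys516 plus pG5-Luc reporter. EC50 fitted from %-of-control; points showing resazurin-detected cytotoxicity dropped.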

human RORγ = molecular target: T2, human RORγ (Homo sapiens, UniProt P51449); assay: Luciferase reporter gene assay of inhibitory effect against RORγ transcriptional activity (GAL4-hRORγ plasmid in CHO cells); type: cell-based
T2 construct: human, NM_005060.3 and from Ser253 to Lys518; expressed in transfected cells; host or cells: CHO cells (transient co-transfection with pG5-Luc reporter)
T2 sequence (P51449 253-518): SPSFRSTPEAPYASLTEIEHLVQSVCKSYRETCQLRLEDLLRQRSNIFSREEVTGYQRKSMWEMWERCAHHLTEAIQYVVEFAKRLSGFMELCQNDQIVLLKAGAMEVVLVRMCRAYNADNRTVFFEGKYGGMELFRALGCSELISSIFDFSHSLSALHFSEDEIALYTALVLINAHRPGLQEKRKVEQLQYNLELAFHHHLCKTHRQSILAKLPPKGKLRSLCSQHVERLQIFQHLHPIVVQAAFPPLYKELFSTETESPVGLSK

Row | Structure (SMILES) | EC50 (mouse RORγ; read-out: LUC EC50 mRORg) [µM] | EC50 (human RORγ; read-out: LUC EC50 hRORg) [µM] | EC50 (mouse RORγ; read-out: LUC EC50 (μM) mRORg) [µM] | EC50 (human RORγ; read-out: LUC EC50 (μM) hRORg) [µM]
1 | Cc1ccc(NC(=O)C[C@H](CC(O)C(F)(F)F)c2nnc([C@H]3C[C@@H](CC(C)C)C3)n2C2CC2)c(C)c1 (single isomer, unassigned) [Example F-621] | < 3 | < 3 |  | 
2 | Cc1ccc(NC(=O)C[C@H](CCC(=O)O)c2noc(-c3cc(C(F)(F)C4CC4)on3)c2C2CC2)c(Cl)c1 [Example E-73] |  |  | < 3 | < 3
3 | CC(C)CCc1nnc(CCC(=O)NCc2ccccc2)n1C1CC1 [Example F-57] |  |  | > 3 | > 3
4 | C=CC[C@@H](CC(=O)Nc1ccc(C)cc1C)c1nnc(CCCC(C)(C)C)n1C1CC1 [Example F-389] |  |  | < 3 | < 3
5 | COc1cc(NC(=O)C[C@H](CCO)c2nnc([C@H]3C[C@@H](CC(C)C)C3)n2C2CC2)ccc1C [Example F-526] | < 3 | < 3 |  | 
6 | Cc1ccc(NC(=O)C[C@@H](CCO)c2nnc(CCCC(C)C)n2C2CC2)c(C)c1 [Example F-313] |  |  | > 3 | > 3
7 | Cc1ccc(NC(=O)[C@H]2CN(CC(F)(F)F)C[C@@H]2c2nnc([C@H]3C[C@@H](CC(C)(C)C)C3)n2C2CC2)c(C)c1 [Example F-541] | < 3 | < 3 |  | 
8 | Cc1ccc(NC(=O)[C@@H](CCC(=O)O)Cc2noc([C@H]3C[C@@H](CC(C)(C)C)C3)c2C2CC2)c(C)c1 [Example F-685] | < 3 | < 3 |  | 
9 | Cc1ccc(NC(=O)CC(CCC(=O)N(C)C)c2nnc(CCCC(C)C)n2C2CC2)c(C)c1 (racemic) [Example F-286] |  |  | < 3 | < 3
10 | Cc1c(Cl)cccc1NC(=O)CCc1nnc(CCN(C)C(C)(C)C)n1C1CC1 [Example F-294] |  |  | > 3 | > 3
11 | Cc1cccc(CNC(=O)CCc2nnc(CCC(C)C)n2C2CC2)c1 [Example F-60] |  |  | > 3 | > 3
12 | Cc1c(Cl)cccc1NC(=O)CC(CCO)c1nnc(CCCC(C)C)n1C1CC1 (racemic) [Example F-199] |  |  | < 3 | < 3
13 | Cc1c(Cl)cccc1NC(=O)CCc1nnc(COCc2ccccc2)n1C1CC1 [Example F-166] |  |  | < 3 | > 3
14 | Cc1ccc(NC(=O)CCc2nnc([C@H]3C[C@H](CC(C)C)C3)n2C2CC2)c(C)c1 [Example F-357] |  |  | < 3 | < 3
15 | CC(=O)N1C[C@H](C(=O)Nc2ccc(C)cc2C)[C@@H](c2nnc(CCCC(C)(C)C)n2C2CC2)C1 [Example F-338] |  |  | < 3 | < 3
16 | Cc1c(Cl)cccc1NC(=O)CCc1nnc(CN2C(=O)c3ccccc3C2=O)n1C1CC1 [Example F-209] |  |  | > 3 | > 3
17 | Cc1ccc(NC(=O)[C@H]2CN(S(C)(=O)=O)C[C@@H]2c2nnc(CCCC(C)(C)C)n2C2CC2)c(C)c1 (racemic) [Example F-397] |  |  | < 3 | < 3
18 | Cc1ccc(NC(=O)[C@H]2CCC(=O)N(C)[C@@H]2c2nnc(CCCC(C)(C)C)n2C2CC2)c(C)c1 [Example F-322] |  |  | < 3 | < 3
19 | Cc1ccc(NC(=O)CCc2noc(C3(CC(=O)O)CC(CC(C)(C)C)C3)c2C2CC2)c(Cl)c1 (mixture of isomers) [Example F-743] | > 3 | > 3 |  | 
20 | CC(C)CCc1nnc(CCC(=O)NCc2ccccc2C(F)(F)F)n1C1CC1 [Example F-130] |  |  | > 3 | > 3
21 | Cc1c(Cl)cccc1NC(=O)CCc1nnc(C2CN(CC(C)C)C2)n1C1CC1 [Example F-260] |  |  | > 3 | > 3
22 | Cc1ccc(NC(=O)C[C@H](CCC(=O)O)c2noc(-c3cc(CCC(C)C)on3)c2C(F)(F)F)c(F)c1 [Example E-13] |  |  | < 3 | > 3
23 | CC(C)CCc1nnc(CCC(=O)NCc2cccc3cn[nH]c23)n1C1CC1 [Example F-150] |  |  | > 3 | > 3
24 | CCn1c(C2Cc3ccccc3C2)nnc1[C@H]1C[C@@H]1C(=O)Nc1cccc2ccccc12 (racemic) [Example F-26] |  |  | > 3 | > 3
